# Source: US8207344B2, “GPR119 agonists” (Eli Lilly and Company, priority 2009, dated 2012)
# pEC50: −log10 of the molar value.
# How the values were obtained:
# human GPR119 = biological target: T1, human GPR119 (Homo sapiens, UniProt Q8TDV5); experiment: Human GPR119 activity assay (cAMP HTRF in 293 T-REx cells expressing hGPR119); assay type: cell-based; conditions: 293 T-REx cells expressing hGPR119, cAMP HTRF, 1 h incubation; read-out: EC50 (agonist concentration that gives 50% activation of the hGPR119 mediated cAMP increase)
# T1 construct: expressed in transfected cells
# T1 sequence (Q8TDV5 1-335): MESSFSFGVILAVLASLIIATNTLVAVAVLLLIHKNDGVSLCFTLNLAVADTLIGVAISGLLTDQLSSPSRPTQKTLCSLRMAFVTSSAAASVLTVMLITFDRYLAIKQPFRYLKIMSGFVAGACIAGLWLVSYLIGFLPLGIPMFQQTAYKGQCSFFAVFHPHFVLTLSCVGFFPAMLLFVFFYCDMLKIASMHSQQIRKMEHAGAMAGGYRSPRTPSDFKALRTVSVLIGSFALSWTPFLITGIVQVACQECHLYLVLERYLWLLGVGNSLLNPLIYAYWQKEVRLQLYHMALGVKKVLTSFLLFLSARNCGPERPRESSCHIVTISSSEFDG
# Description: A stable cell line expressing human GPR119 off an inducible promoter is generated in 293 T-REx™ cells (Invitrogen). T-REx™ (Tetracycline-Regulated Expression) cell line stably expresses the tetracycline repressor protein and, therefore, allow for inducible expression of the gene of interest (GPR119) with doxycycline. Agonists to the human GPR119 receptor are characterized by measuring increases in the cAMP levels in 293 T-REx™ cells expressing hGPR119. 10,000 cells/well are seeded into a 96-well plate and cultured for 24 h in DMEM supplemented with 10% fetal bovine serum, 15 μg/mL Blasticidin and 200 μg/mL Hygromycin B. Next day, cells are stimulated with 1 ng/mL Doxycycline in DMEM with no further addition of Hygromycin B and Blasticidin. cAMP assay is performed after 18 h incubation with doxycycline. cAMP is determined using the cAMP HiRange HTRF assay (Cisbo International). Cells are washed with PBS and pre-incubated for 15 min with PBS supplemented with 2 mM glucose, 0.25 mM IBMX and 0.1% BSA. Test compounds diluted in the pre-incubation buffer are added and cells are further incubated at room temperature for 1 h. Incubation is stopped by addition of HTRF reagents diluted in the lysis buffer, followed by incubation for 1 h and measurements of fluorescence at […]. The potency of the agonists is determined as the agonist concentration that gives 50% activation of the hGPR119 mediated cAMP increase (EC50).
# total GIP = experiment: Mouse Gastric Inhibitory Polypeptide (GIP) assay; assay type: in vivo; conditions: male C57BL/6 mice, 0.5-6 h
# Description: Male C57BL/6 mice (8-10 weeks of age, n=20/dose level, n=5/time point) are fasted overnight (16 hr), weighed the following morning, and then orally dosed with vehicle (1% HEC) or various doses of test article at 5 mL/kg. Animals are euthanized by CO2 asphyxiation for 1 minute, and then blood is collected by cardiac puncture at various times (0.5, 1.5, 3, and 6 h post compound dose) into EDTA plasma tubes containing 10 μL/mL DPP4 inhibitor (Millipore, DPP4-010) and 1.1×10^5 KIU/mL aprotinin. Blood samples are kept on ice until plasma is separated by centrifugation at 3000×g for 5 min. Resulting plasma samples are placed into 96-well plates and stored at −20° C. until analyzed. Measurements of total GIP (measured by Millipore kit EZRMGIP-55K) are performed for each time-point. For each treatment group, the AUC for GIP is determined by applying the trapezoid rule to the timepoint-specific average GIP levels. Potencies were estimated using piecewise linear interpolation across the collection of calculated GIP AUCs above vehicle from a dose response study. Compound potency is defined as the dose and/or concentration of compound that yielded an increase of 350 pg*hr/mL above the vehicle group GIP AUC over the timecourse of the experiment.
# GLUTag cells = experiment: Glucagon-like peptide 1 secretion in GLUTag cells; assay type: cell-based, murine; conditions: Mus musculus, 2 h at 37 C, 5 mM glucose, read-out: EC50 (agonist concentration that gives 50% increase in GLP-1)
# Description: Effects of GPR119 agonists on glucagon-like peptide 1 (GLP-1) secretion are determined in vitro in GLUTag cells. GLUTag cells are an immortalized murine intestinal enteroendocrine cell line that express the preproglucagon gene and secrete GLP-1 in a regulated manner (Brubaker P L, Schloos J, Drucker D J. Regulation of glucagon-like peptide-1 synthesis and secretion in the GLUTag enteroendocrine cell line. Endocrinology. 1998 139:4108-14). To measure GLP-1 secretion, 15,000 cells/well are seeded in 96-well-plate and incubated for 3 days in DMEM supplemented with 10% FBS and 1% Glutamine. On the day of the experiment, cells are washed twice with the incubation buffer, EBSS supplemented with 5 mM glucose and 0.1% BSA. 150 μL of the incubation buffer containing test compounds is added to each well and cells are incubated at 37° C. for 2 h. After incubation, the supernatant is collected and filtered using 96-well-filter-plates. GLP-1 content in the filtrate is determined with the Mouse/Rat Total GLP-1 Assay (Meso Scale Discovery). The potency of the GPR119 agonists to stimulate GLP-1 secretion is determined as the agonist concentration that gives 50% increase in GLP-1 (EC50).
# [1] = Oral bioavailability in Beagle dogs; assay type: in vivo; conditions: dog, plasma, 1 mg/kg IV, 3 mg/kg oral gavage
# Excerpt: (§1) Methods for accessing oral bioavailability are well appreciated in the art. One such reference is Medicinal Research Reviews Vol 21 No. 5 382-396 (2001). The oral bioavailability of compounds of the present invention may be estimated essentially as follows.
# (§2) Cohorts of three 250-400 gram male Sprague-Dawley rats or approximately 10 kg Beagle dogs (female or male) are used. […] Dogs are IV administered the compounds by cannulated cephalic vein and blood collections are by jugular vein. Animals are first IV dosed at 1 mg/kg and blood samples (0.1 to 0.2 mL) are then collected using EDTA as an anticoagulant at 0.0830, 0.25, 0.50, 1, 2, 4, 8, 12, and 24 h. After at least two days and overnight fasting, the animals are dosed at 3 mg/kg by oral gavage. Blood samples (0.1 to 0.2 mL) are then collected using EDTA as an anticoagulant at 0.25, 0.50, 1, 2, 4, 6, 8, 12, and 24 h. During the course of a study the total of blood (mL) collected is not to exceed 1% of total body weight in grams.
# (§3) Compound plasma concentrations are measured by LC/MS/MS assays. Data are then analyzed using standard non-compartmental pharmacokinetic analysis. Oral bioavailability is calculated as: (AUC0-inifinity, oral/AUC0-inifinity, IV)×(Dose, IV./Dose, oral)×100%
# plasma glucose = experiment: Mouse Oral Glucose Tolerance Test (OGTT); assay type: in vivo, C57BL/6 mice
# Description: Normal C57BL/6 mice are fasted overnight, randomized into groups (n=6) and orally dosed with vehicle (1% HEC, 0.25% tween 80, 0.05% antifoam) or 0.9, 2, 6 and 18 mg/kg GPR119 agonist suspended in vehicle. 30 minutes after the compound is administered, mice are dosed orally with a 50% dextrose solution at 3 g/kg. At various times (0, 20, 40, or 60 minutes post glucose), the mice are restrained in cotton gloves or paper towels and 1 mm or less of the tail is cut. A small drop of blood is placed onto Accu-Chek® glucometers (Roche model 22-044217) for glucose measurements. Three glucometers are used to read glucose in each collected sample, with the median value being reported as the final glucose value. Area under the plasma glucose curve (glucose AUC) is calculated for each group and the percentage decrease in the glucose AUC versus the control group is used as a measure of efficacy of the compound to decrease plasma glucose.
# [2] = tested on: Diet-Induced Obese (DIO) mice; experiment: Chronic treatment of Diet-Induced Obese (DIO) mice; assay type: in vivo, C57/BL6 mice; conditions: 30 mg/kg once daily, 3 weeks
# Description: DIO male C57/BL6 mice are maintained on a calorie-rich diet and have free access to food and water for at least 2 weeks before randomization into groups by weight (n=8) and treatment. Animals are individually housed in a temperature-controlled (24° C.) facility with 12 hour light, 12 hour dark cycle. Body weights range from 34-40 g. Mice are administrated once daily vehicle (1% HEC), 30 mg/kg GPR119 agonist, 30 mg/kg DPPIV inhibitor or a combination of 30 mg/kg GPR119 agonist and 30 mg/kg DPPIV inhibitor. Treatment continues for 3 weeks. Food and body weights are recorded daily before dark photoperiod. Cumulative body weight change is calculated as the daily body weight minus body weight before treatment for each animal and presented as an average for the group. Food intake is measured daily for each animal and combined with the total amount of food consumed by that animal from all previous days to yield cumulative food intake, which is then averaged for the group. At the end of the study OGTT is performed after overnight fasting.
# [3] = Oral bioavailability in Sprague-Dawley rats; assay type: in vivo; conditions: male, rat, plasma, 1 mg/kg IV, 3 mg/kg oral gavage
# Excerpt: as §1, §2, §3
# [4] = oral dosing 30 min before 3 g/kg dextrose, normal C57BL/6 mice
smiles,measurement,setting,value
"CC(Oc1ccc(C2=CCN(S(C)(=O)=O)CC2)cc1)C1CCN(CC(C)(C)F)CC1 (single isomer, unassigned) [Example 8, 4-(4-{1-[1-(2-Fluoro-2-methyl-propyl)-piperidin-4-yl]-ethoxy}-phenyl)-1-methanesulfonyl-1,2,3,6-tetrahydro-pyridine]",pEC50,human GPR119,8.96
"CS(=O)(=O)N1CC=C(c2ccc(OCC3CCN(CC4(F)CCCC4)CC3)cc2)CC1 [Example 1, 4-{4-[1-(1-Fluoro-cyclopentylmethyl)-piperidin-4-ylmethoxy]-phenyl}-1-methanesulfonyl-1,2,3,6-tetrahydro-pyridine]",pEC50,human GPR119,8.34
"CC(C)(CN1CCC(COc2ccc(C3=CCN(S(C)(=O)=O)CC3)nc2)CC1)C(F)(F)F [Example 3, 1′-Methanesulfonyl-5-[1-(3,3,3-trifluoro-2,2-dimethyl-propyl)-piperidin-4-ylmethoxy]-1′,2′,3′,6′-tetrahydro-[2,4′]bipyridinyl]",increase in GIP AUC over vehicle,total GIP; 10 mg/kg oral dose,762 pg·h/mL
"CC(C)(F)CN1CCC(COc2ccc(C3=CCN(S(C)(=O)=O)CC3)nc2)CC1 [Example 6, 5-[1-(2-Fluoro-2-methyl-propyl)-piperidin-4-ylmethoxy]-1′-methanesulfonyl-1′,2′,3′,6′-tetrahydro-[2,4′]bipyridinyl]",pEC50,human GPR119,9.02
same,pEC50,GLUTag cells,7.20
same,bioavailability,[1],90%
same,increase in GIP AUC over vehicle,total GIP; 1.6 mg/kg oral dose,422 pg·h/mL
same,ED50,"plasma glucose; Mus musculus, oral, doses 0.9, 2, 6 and 18 mg/kg, normal C57BL/6 mice, read-out: ED50 (dose which produces a 50% decrease in glucose area under the curve)",0.4 mg/kg
same,glucose tolerance,plasma glucose; [4],improved glucose tolerance
same,postprandial plasma glucose,plasma glucose; [4],significantly decreased
same,fasting plasma glucose,"plasma glucose; oral dosing, normal C57BL/6 mice fasted overnight",did not influence
same,body weight,[2],mild decrease
same,food intake,[2],mild decrease
same,plasma glucose levels,[2]; OGTT at end of study,did not significantly modify
"CC(C)(F)CN1CCC(COc2ccc(C3=CCN(S(C)(=O)=O)CC3)cc2F)CC1 [Example 7, 4-{3-Fluoro-4-[1-(2-fluoro-2-methyl-propyl)-piperidin-4-ylmethoxy]-phenyl}-1-methanesulfonyl-1,2,3,6-tetrahydro-pyridine]",pEC50,human GPR119,8.67
"CC(F)(F)CN1CCC(COc2ccc(C3=CCN(S(C)(=O)=O)CC3)cc2)CC1 [Example 9, 4-{4-[1-(2,2-Difluoro-propyl)-piperidin-4-ylmethoxy]-phenyl}-1-methanesulfonyl-1,2,3,6-tetrahydro-pyridine]",pEC50,GLUTag cells,7.43
"CS(=O)(=O)N1CC=C(c2ccc(OCC3CCN(CC4(C(F)(F)F)CC4)CC3)cc2)CC1 [Example 10, 1-Methanesulfonyl-4-{4-[1-(1-trifluoromethyl-cyclopropylmethyl)-piperidin-4-ylmethoxy]-phenyl}-1,2,3,6-tetrahydro-pyridine]",pEC50,human GPR119,9.02
same,bioavailability,[3],53%
same,increase in GIP AUC over vehicle,total GIP; 10 mg/kg oral dose,762 pg·h/mL
"N[C@@H](CC(=O)N1CCn2c(nnc2C(F)(F)F)C1)Cc1cc(F)c(F)cc1F [Sitagliptin, sitagliptin, reference compound]",body weight,[2],did not alter
same,food intake,[2],did not alter
